Measured values as given in patent publication US12059486B2, “Cosmetic compositions” (Rodan & Fields, LLC, priority 2021, dated 2024).

Legend:
Type I Collagen = assay: Output of ECM components in adult human dermal fibroblast culture model (Method E): type I collagen; type: cell-based; conditions: 10 ng/mL; day 7; corrected for cell numbers, % of water control
Method: (§1) Method E: Metabolism, Proliferation and Output of ECM Components in the Adult Human Dermal Fibroblast Culture Model. Test materials were dissolved in sterile cell culture medium at ×2 highest concentration tested and samples were added in triplicates to exponentially growing adult human dermal fibroblasts (aHDF; 7,000 cells/well of a 96 well plate; p.7 Cell Applications, San Diego, CA, cat. #106-05a; lot #3014). Cultures were maintained in DMEM/10% FBS. At the end of the experiments (day 7), macromolecules of interest were quantified either in the cell culture medium (decorin, type I collagen, type III collagen and hyaluronate) or on fixed cells (total insoluble proteins and elastin), by ELISA and sulforhodamine B, as indicated in Tables II-IV. Total insoluble (cytoskeletal) proteins were quantified to determine the effect of test materials on cell proliferation (cell numbers or cell #) according to the method described by Voigt et al., 2005. These values were also used to standardize decorin, type I collagen, type III collagen, elastin and hyaluronate output data to cell numbers, using the Equation 1: (Standardized Cell #)=[macromolecule of interest raw read out value]/cell number raw read out value] […]
(§2) This standardization was performed separately for each well. […] All colorimetric measurements were performed using Molecular Devices microplate reader MAX190 and SoftMax3.1.2PRO software. […]

Type III collagen = assay: Output of ECM components in adult human dermal fibroblast culture model (Method E): type III collagen; type: cell-based; conditions: 10 ng/mL; day 7; corrected for cell numbers, % of water control
Method: as §1, §2

decorin = assay: Output of ECM components in adult human dermal fibroblast culture model (Method E): decorin; type: cell-based; conditions: 10 ng/mL; day 7; corrected for cell numbers, % of water control
Method: as §1, §2

elastin = assay: Output of ECM components in adult human dermal fibroblast culture model (Method E): elastin; type: cell-based; conditions: 10 ng/mL; day 7; fixed cells; corrected for cell numbers, % of water control
Method: as §1, §2

hyaluronate = assay: Output of ECM components in adult human dermal fibroblast culture model (Method E): hyaluronate; type: cell-based; conditions: 10 ng/mL; day 7; corrected for cell numbers, % of water control
Method: as §1, §2

soluble decorin = assay: Soluble decorin in adult human dermal fibroblasts (Method F); type: cell-based; conditions: 10 ng/mL; day 7; standardized to cell numbers, % of water control
Method: (§3) Method F: Test materials were dissolved in sterile cell culture medium at x2 highest concentration tested and samples were added in triplicates to exponentially growing adult human dermal fibroblasts (7,000 cells/well of a 96 well plate; p.7 Cell Applications, San Diego, CA, cat. #106-05a; lot #3014). Cultures were maintained in DMEM/10%FBS. At the end of the experiment (day 7), decorin was quantified in the cell culture medium (soluble fraction) and on fixed cells (insoluble fraction) by ELISA. Total insoluble (cytoskeletal) proteins were quantified to determine the effect of test materials on cell proliferation (cell numbers or cell #) according to the method described by Voigt et al., 2005. These values were also used to standardize decorin output data to cell numbers, using Equation 1. This standardization was performed separately for each well. Each experimental condition and control was assayed at least in triplicates. The effect of test materials on mitochondrial metabolism was measured with the MTT assay, which measures the activity of mitochondrial dehydrogenases, such as succinate dehydrogenase, implicated in the respiratory electron transport chain in mitochondria (Berridge & Tan; 1993).

insoluble decorin = assay: Insoluble decorin in adult human dermal fibroblasts (Method F); type: cell-based; conditions: 10 ng/mL; day 7; standardized to cell numbers, % of water control
Method: as §3

[1] = Free radical scavenging activity (ABTS); type: biochemical; conditions: 0.06 mg/mL; expressed as % water control
Method: Free radical scavenging activity was tested of different experimental conditions expressed as % water control. The positive control, ascorbic acid (Ref. 5), reached the expected level of inhibitory activity technically validating the experiments.

[2] = tested on: human epidermal melanocytes; assay: Melanin content in human epidermal melanocytes; type: cell-based; conditions: 7 days
Method: Test materials were added to exponentially growing cultures and the experiment was terminated 7 days later.

For basic fibroblast growth factor [bFGF], the “Type I Collagen” value (Type I Collagen) was 67 % CTR, the “Type III collagen” value (Type III collagen) was 87 % CTR and the decorin (decorin) was 57 % CTR. It also gave an elastin (elastin) of 62 % CTR, a Hyaluronian (hyaluronate) of 72 % CTR and a Soluble decorin (soluble decorin) of 67 % CTR. The Insoluble decorin (insoluble decorin) was 87 % CTR.
Compound `O=C1O[C@H]([C@@H](O)CO)C(O)=C1O` [Ref. 5, ascorbic acid] has an ABTS [1] of 0 % Control.
Work on `O=c1cc(CO)occ1O` [Ref. 4, Kojic acid] yielded a Melanin cell number-adjusted ([2]; 50 ug/mL) of 103 % Control and a Melanin cell number-adjusted ([2]; 200 ug/mL) of 46 % Control.
